Laboratory results as given in patent US11311522B1 (Cavion, Inc., priority 2018, dated 2022).
Values joined by “and” are separate entries in the source; they are usually repeats but may differ in a detail not shown here. Equal entries are not always repeated.

Key:
[1] = test system: patients with essential tremor; assay: T-CALM: TETRAS activities of daily living subscale; format: in vivo, human; conditions: for TETRAS-ADL Score, Median (minimum, maximum) / TETRAS-ADL Score, Mean (SD): post-hoc
Excerpt: The sum of the individual scores provides the overall score, ranging from 0 to 48. The complete TETRAS ADL Subscale is as follows.
Rate tremor's impact on activities of daily living (0-4 scoring). • 1. Speaking • 0=Normal • 1=Slight voice tremulousness, only when “nervous”. • 2=Mild voice tremor. All words easily understood. • 3=Moderate voice tremor. Some words difficult to understand. • 4=Severe voice tremor. Most words difficult to understand. • 2. Feeding with a spoon • 0=Normal • 1=Slightly abnormal. […] Spills a little. • 3=Moderately abnormal. Spills a lot or changes strategy to complete task such as using two hands or leaning over. • 4=Severely abnormal Cannot feed with a spoon. • 3. Drinking from a glass • 0=Normal. • 1=Slightly abnormal. […] Spills a little. • 3=Moderately abnormal. Spills a lot or changes strategy to complete task such as using two hands or leaning over. • 4=Severely abnormal. Cannot drink from a glass or uses straw or sippy cup. • 4. Hygiene • 0=Normal. • 1=Slightly abnormal. […] Some difficulty but can complete task. • 3=Moderately abnormal. Unable to do most fine tasks such as putting on lipstick or shaving unless changes strategy such as using two hands or using the less affected hand. • 4=Severely abnormal. Cannot complete hygiene activities independently. • 5. Dressing • 0=Normal. • 1=Slightly abnormal. […] Able to do everything but has difficulty due to tremor. • 3=Moderately abnormal. Unable to do most dressing unless uses strategy such as using Velcro, buttoning shirt before putting it on or avoiding shoes with laces. • 4=Severely abnormal. Cannot dress independently. • 6. Pouring • 0=Normal. • 1=Slightly abnormal. […] Must be very careful to avoid spilling but may spill occasionally. • 3=Moderately abnormal. Must use two hands or uses other strategies to avoid spilling. • 4=Severely abnormal. Cannot pour. • 7. Carrying food trays, plates or similar items • 0=Normal • 1=Slightly abnormal. […] Must be very careful to avoid spilling items on food tray. • 3=Moderately abnormal. Uses strategies such as holding tightly against body to carry. • 4=Severely abnormal. Cannot carry food trays or similar items. • 8. Using Keys • 0=Normal • 1=Slightly abnormal. Tremor is present but can insert key with one hand without difficulty. • 2=Mildly abnormal. Commonly misses target but still routinely puts key in lock with one hand. • 3=Moderately abnormal. Needs to use two hands or other strategies to put key in lock. • 4=Severely abnormal. Cannot put key in lock. • 9. Writing • 0=Normal • 1=Slightly abnormal. […] Difficulty writing due to the tremor • 3=Moderately abnormal. Cannot write without using strategies such as holding the writing hand with the other hand, holding pen differently or using large pen. • 4=Severely abnormal. Cannot write. • 10. Working. If patient is retired, ask as if they were still working. If the patient is a housewife, ask the question as it relates to housework: • 0=Normal. • 1=Slightly abnormal. […] Tremor interferes with work; able to do everything, but with errors. • 3=Moderately abnormal. Unable to continue working without using strategies such as changing jobs or using special equipment. • 4=Severely abnormal. Cannot perform any job or household work. • 11. Overall disability with the most affected task (Name task, e.g. using computer mouse, writing, etc) • Task • 0=Normal. • 1=Slightly abnormal. […] Tremor interferes with task but is still able to perform task. • 3=Moderately abnormal. Can do task but must use strategies. • 4=Severely abnormal. Cannot do the task. • 12.
Analyses of the TETRAS-ADL was conducted using the same type of ANCOVA model as described for the TETRAS-PS, using two-sided tests at the alpha=0.05 level of significance (FIG. 2 and Table 2).

[2] = test system: patients with essential tremor; assay: T-CALM substudy: iMotor digital spirography; format: in vivo, human; conditions: dominant hand
Excerpt: The application requires the patient to complete a cycle of evaluations measuring motor function.
For the Archimedes spiral item of iMotor, subjects are asked to draw a spiral using a digital stylus on a tablet-based application. Prompts instruct the subject to trace a dotted grey mid-line that begins at the start of the spiral without lifting the stylus off the screen. The test is not timed. Subjects are asked to complete the task twice—one with the right and one with the left hand.
Functional tremor frequency (in Hz) is calculated by the iMotor algorithm based on the number and timing of stylus crosses of the mid-line. The mean change from baseline to Day 15 and Day 28 was calculated for the dominant hand. Statistical significance was calculated by Mann-Whitney non-parametric t-test (two tailed) (FIG. 5 and Table 5).

[3] = Crossover bioavailability study: adverse events; format: in vivo, human; conditions: Any Treatment (Original IR, MR1 or MR2), single 8 mg doses; subjects n (%), N = 15
CYP3A4 and CYP2C9 = assay: In vitro metabolism (liver microsomes, hepatocytes, recombinant CYPs, anti-CYP antibodies); format: in vitro ADME, human; conditions: 10 μM CX-8998
Excerpt: Glucuronide conjugates of the oxygenated metabolites are detected in human, monkey, and dog hepatocyte preparations. […] However, the abundance of CYP3A5, CYP2C19, and CYP2D6 in human liver microsomes is low (2%-5%) relative to the primary contributors, CYP3A4 (˜30%) and CYP2C9 (˜20%). […] Information on reproductive and developmental toxicology was obtained in a 28-day pivotal female fertility study in rats and in preliminary embryo-fetal development studies in rats and rabbits.

[4] = rat, in vivo, 300 mg/kg/day
[5] = doses up to 20 μM
[6] = in vivo
[7] = Exploratory embryofetal development study in rats
[8] = Day 15, patients Minimally Improved by PGIC, N=17
[9] = Day 28, patients Minimally Improved by CGI-I, N=15
[10] = Day 28, patients Minimally Improved by PGIC, N=10
[11] = Sprague-Dawley rat, oral gavage GD 6 through GD 20

In the case of `CC(C)c1ccc(CC(=O)N[C@H](C)c2ccc(OCC(F)(F)F)cn2)cc1` [CX-8998], the “Change from baseline in TETRAS-ADL, LS mean” value ([1]; Day 15 (8 mg BID)) is reported as −4.5±0.87 and −4.5, the “TETRAS-ADL Score, Median (minimum, maximum)” value (“TETRAS-ADL Score, Median” for short) ([1]; Day 15, patients Minimally Improved by CGI-I, N=19) is reported as −2.0 and the “TETRAS-ADL Score, Mean (SD)” value ([1]; Day 15, patients Minimally Improved by CGI-I, N=19, reduction from baseline) is reported as −3.7 (4.21). The “TETRAS-ADL Score, Mean (SD)” value [1, 8] was −3.3 (4.27), the “TETRAS-ADL Score, Median” value [1, 8] was −4.0 and the “Change from baseline in TETRAS-ADL, LS mean” value ([1]; Day 28 (10 mg BID)) was −4.5±1.12 and −4.5. The “TETRAS-ADL Score, Mean (SD)” value [1, 9] was −4.4 (8.10), the “TETRAS-ADL Score, Median” value [1, 9] was −1.0 (−24, 3) and the “TETRAS-ADL Score, Mean (SD)” value [1, 10] was −1.6 (3.84). The “TETRAS-ADL Score, Median” value [1, 10] was −1.0 (−7, 3), the “>5 to 10 point worsening” value ([1]; TETRAS-ADL, Day 15) was 0 n (%) and the “>10 point worsening” value ([1]; TETRAS-ADL, Day 15) was 0 n (%). The 0 change ([1]; TETRAS-ADL, Day 28) was 5 (13.5%) n (%), the “>0 to 1 point improvement” value ([1]; TETRAS-ADL, Day 28) was 2 (5.4%) n (%) and the “>0 to 1 point worsening” value ([1]; TETRAS-ADL, Day 28) was 3 (8.1%) n (%). The “>1 to 2.5 point improvement” value ([1]; TETRAS-ADL, Day 28) was 3 (8.1%) n (%), the “>1 to 2.5 point worsening” value ([1]; TETRAS-ADL, Day 28) was 3 (8.1%) n (%) and the “>2.5 to 5 point improvement” value ([1]; TETRAS-ADL, Day 28) was 7 (18.9%) n (%). For the same compound, the “>2.5 to 5 point worsening” value ([1]; TETRAS-ADL, Day 28) was 3 (8.1%) n (%), the “>5 to 10 point improvement” value ([1]; TETRAS-ADL, Day 28) was 6 (16.2) n (%) and the “>5 to 10 point worsening” value ([1]; TETRAS-ADL, Day 28) was 0 n (%). The “>10 point improvement” value ([1]; TETRAS-ADL, Day 28) was 5 (13.5%) n (%), the “>10 point worsening” value ([1]; TETRAS-ADL, Day 28) was 0 n (%) and the “Change from baseline in functional tremor frequency by iMotor, mean” value ([2]; Day 15 (8 mg BID)) was −2.66 Hz. For the same compound, the “Change from baseline in functional tremor frequency by iMotor, mean” value ([2]; Day 28 (10 mg BID)) was −2.41 Hz, the “Adverse Event: Abnormal dreams” value [3] was 3 (20%) and the “Adverse Event: Any” value [3] was 11 (73%). The “Adverse Event: Dizziness” value [3] was 5 (33%), the “Adverse Event: Euphoric mood” value [3] was 2 (13%) and the “Adverse Event: Feeling abnormal” value [3] was 4 (27%). The “Adverse Event: Headache” value [3] was 5(33%), the “Adverse Event: Nervous System” value [3] was 10 (67%) and the “Adverse Event: Paresthesias” value [3] was 7 (47%). The “Adverse Event: Psychiatric” value [3] was 5 (33%), the “Inhibition of metabolism by antihuman CYP3A and CYP2C antibodies” value (CYP3A4 and CYP2C9) was over 90% and the “Decrease in food consumption” value [4] was “up to 19%”. The “Alkaline elution assay result” value [5] was “negative”, the “Micronuclei induction in bone marrow result” value [6] was “negative” and the “dose at which developmental toxicity was observed” value [7, 11] was “observed at ≥100 mg/kg/day”. The “dose at which maternal toxicity was excessive” value [7, 11] was 1000 mg/kg/day, the “dose at which maternal toxicity was observed” value [7, 11] was at least 30 mg/kg/day and the “Doses with developmental toxicity (decreased live fetal body weight)” value ([7]; rat, in vivo) was at least 100 mg/kg/day. The “Doses with maternal toxicity” value ([7]; rat, in vivo) was at least 30 mg/kg/day.
